Active and inactive are the calls of the source. The calls are words filed in the database; no cut-off is given here.
biological target: Histamine H1 receptor (Homo sapiens) (UniProt P35367); experiment: Displacement of [3H]pyrilamine from recombinant human histamine H1 receptor expressed in CHO-K1 cells at 10 to 30 uM incubated for 3 hrs; format: cell-based; details: dose 10-30 µM
Sequence (P35367 whole entry): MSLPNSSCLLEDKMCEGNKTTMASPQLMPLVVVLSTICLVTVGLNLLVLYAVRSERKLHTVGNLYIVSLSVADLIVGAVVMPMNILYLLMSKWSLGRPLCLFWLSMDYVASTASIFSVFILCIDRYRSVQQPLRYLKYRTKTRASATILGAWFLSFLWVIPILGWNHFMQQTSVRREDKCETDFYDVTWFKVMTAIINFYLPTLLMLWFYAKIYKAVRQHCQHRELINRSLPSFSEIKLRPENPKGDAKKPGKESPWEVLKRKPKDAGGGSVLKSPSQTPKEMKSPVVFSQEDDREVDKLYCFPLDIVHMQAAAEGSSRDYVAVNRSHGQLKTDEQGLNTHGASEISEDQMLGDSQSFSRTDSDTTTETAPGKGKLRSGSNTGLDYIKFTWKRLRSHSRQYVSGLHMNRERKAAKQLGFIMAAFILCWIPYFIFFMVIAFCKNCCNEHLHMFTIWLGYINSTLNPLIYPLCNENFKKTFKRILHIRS

| SMILES | Activity |
| --- | --- |
| CC[C@H](O)C(C[C@H](C)NC)(c1ccccc1)c1ccccc1 | Active; Compound Displayed Significant Activity Like (S)-Methadone |

biological target: Ionotropic glutamate receptor NMDA 1/2D (Homo sapiens) (UniProt Q05586+O15399); experiment: Antagonist activity at GluN1/GluN2D receptor (unknown origin) overexpressed in CHO cells assessed as inhibition of Ca2+ flux incubated for 24 hrs in presence of glycine/L-glutamate by FLIPR assay; format: cell-based; details: not given

| SMILES | inhibition |
| --- | --- |
| C[C@H]1CC(c2ccccc2)(c2ccccc2)C(=O)N1C | inactive |
| C[C@@H](CC(C(=O)O)(c1ccccc1)c1ccccc1)N(C)C | inactive |
| C[C@H](CC(C(=O)O)(c1ccccc1)c1ccccc1)N(C)C | inactive |
| CC[C@@H](O)C(C[C@H](C)N(C)C)(c1ccccc1)c1ccccc1 | inactive |
| C[C@@H]1CC(c2ccccc2)(c2ccccc2)C(=O)N1C | inactive |
| CCC1=[N+](C)[C@@H](C)CC1(c1ccccc1)c1ccccc1 | inactive |

biological target: Sodium-dependent serotonin transporter (Homo sapiens) (UniProt P31645); experiment: Displacement of [3H]paroxetine from recombinant human SERT expressed in HEK293 cells at 1 to 10 uM incubated for 1 hr; format: cell-based; details: dose 1-10 µM
Sequence (P31645 whole entry, looked up): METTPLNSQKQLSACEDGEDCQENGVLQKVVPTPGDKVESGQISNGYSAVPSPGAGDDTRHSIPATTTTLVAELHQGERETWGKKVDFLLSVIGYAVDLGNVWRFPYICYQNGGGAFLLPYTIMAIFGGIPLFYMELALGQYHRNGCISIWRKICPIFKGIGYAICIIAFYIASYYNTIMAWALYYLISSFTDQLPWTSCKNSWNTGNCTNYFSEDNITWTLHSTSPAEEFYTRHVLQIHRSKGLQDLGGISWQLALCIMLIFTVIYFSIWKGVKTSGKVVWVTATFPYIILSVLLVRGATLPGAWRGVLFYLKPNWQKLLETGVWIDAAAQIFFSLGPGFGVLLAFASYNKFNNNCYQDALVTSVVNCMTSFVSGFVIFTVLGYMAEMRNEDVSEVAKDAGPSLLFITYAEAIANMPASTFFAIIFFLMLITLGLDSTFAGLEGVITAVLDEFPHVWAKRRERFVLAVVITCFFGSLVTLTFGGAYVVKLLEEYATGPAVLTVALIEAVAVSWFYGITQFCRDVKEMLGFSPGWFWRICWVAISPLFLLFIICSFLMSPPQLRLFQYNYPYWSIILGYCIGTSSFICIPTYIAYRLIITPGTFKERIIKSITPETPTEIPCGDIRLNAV

| SMILES | Activity |
| --- | --- |
| CC[C@@H](O)C(C[C@H](C)N)(c1ccccc1)c1ccccc1 | Active |
| CC[C@H](O)C(C[C@H](C)N)(c1ccccc1)c1ccccc1 | Active |

biological target: Sodium-dependent serotonin transporter (Homo sapiens) (UniProt P31645); experiment: Displacement of [3H]paroxetine from recombinant human SERT expressed in HEK293 cells at 10 uM incubated for 1 hr; format: cell-based; details: not given

| SMILES | Activity |
| --- | --- |
| CC[C@H](O)C(C[C@@H](C)NC)(c1ccccc1)c1ccccc1 | Active |
| CC[C@@H](O)C(C[C@@H](C)NC)(c1ccccc1)c1ccccc1 | Active |

test system: not listed separately; experiment: Selectivity index, ratio of displacement of [3H]TCP from Wistar rat cerebral cortex NMDAR to displacement of [3H]diprenorphine from recombinant human mu opioid receptor expressed in CHO-K1 cells; format: cell-based; details: not given

| SMILES | Ratio pKi |
| --- | --- |
| CC[C@H](O)C(C[C@@H](C)NC)(c1ccccc1)c1ccccc1 | 0.98 |
| CC[C@@H](O)C(C[C@@H](C)NC)(c1ccccc1)c1ccccc1 | 0.83 |

biological target: Ionotropic glutamate receptor NMDA 1/2C (Homo sapiens) (UniProt Q05586+Q14957); experiment: Antagonist activity at GluN1/GluN2C receptor (unknown origin) overexpressed in CHO cells assessed as inhibition of Ca2+ flux incubated for 24 hrs in presence of glycine/L-glutamate by FLIPR assay; format: cell-based; details: not given

| SMILES | inhibition |
| --- | --- |
| C[C@H]1CC(c2ccccc2)(c2ccccc2)C(=O)N1C | inactive |
| C[C@@H](CC(C(=O)O)(c1ccccc1)c1ccccc1)N(C)C | inactive |
| C[C@H](CC(C(=O)O)(c1ccccc1)c1ccccc1)N(C)C | inactive |
| CC[C@@H](O)C(C[C@H](C)N(C)C)(c1ccccc1)c1ccccc1 | inactive |
| C[C@@H]1CC(c2ccccc2)(c2ccccc2)C(=O)N1C | inactive |
| CCC1=[N+](C)[C@@H](C)CC1(c1ccccc1)c1ccccc1 | inactive |

biological target: Glutamate NMDA receptor; GRIN1/GRIN2B (Homo sapiens) (UniProt Q05586+Q13224); experiment: Antagonist activity at GluN1/GluN2B receptor (unknown origin) overexpressed in CHO cells assessed as inhibition of Ca2+ flux incubated for 24 hrs in presence of glycine/L-glutamate by FLIPR assay; format: cell-based; details: not given

| SMILES | inhibition |
| --- | --- |
| C[C@H]1CC(c2ccccc2)(c2ccccc2)C(=O)N1C | inactive |
| C[C@@H](CC(C(=O)O)(c1ccccc1)c1ccccc1)N(C)C | inactive |
| C[C@H](CC(C(=O)O)(c1ccccc1)c1ccccc1)N(C)C | inactive |
| CC[C@@H](O)C(C[C@H](C)N(C)C)(c1ccccc1)c1ccccc1 | inactive |
| C[C@@H]1CC(c2ccccc2)(c2ccccc2)C(=O)N1C | inactive |
| CC[C@H](O)C(C[C@@H](C)N(C)C)(c1ccccc1)c1ccccc1 | inactive |
| CCC1=[N+](C)[C@@H](C)CC1(c1ccccc1)c1ccccc1 | inactive |
| CCC1=[N+](C)[C@H](C)CC1(c1ccccc1)c1ccccc1 | inactive |

biological target: Sigma non-opioid intracellular receptor 1 (Homo sapiens) (UniProt Q99720); experiment: Displacement of [3H]pentazocine from sigma 1 receptor in human Jurkat cells at 0.3 to 3 uM incubated for 2 hrs; format: cell-based; details: dose 0.3-3 µM
Sequence (Q99720 whole entry): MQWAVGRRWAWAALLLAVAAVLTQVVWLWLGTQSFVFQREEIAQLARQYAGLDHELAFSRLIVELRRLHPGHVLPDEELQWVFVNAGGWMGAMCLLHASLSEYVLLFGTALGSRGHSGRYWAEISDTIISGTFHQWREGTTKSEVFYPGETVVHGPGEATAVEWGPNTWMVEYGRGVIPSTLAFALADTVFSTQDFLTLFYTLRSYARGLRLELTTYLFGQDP

| SMILES | Activity |
| --- | --- |
| CC[C@H](O)C(C[C@H](C)NC)(c1ccccc1)c1ccccc1 | Active |

biological target: Glutamate NMDA receptor (Rattus norvegicus) (UniProt P35439+Q00959+Q00960+Q00961+Q62645+Q8VHN2+Q9R1M7); experiment: Displacement of [3H]TCP from Wistar rat cerebral cortex NMDAR at 10 uM incubated for 1.5 hrs; format: tissue-based; details: not given

| SMILES | Activity |
| --- | --- |
| CCC1=N[C@H](C)CC1(c1ccccc1)c1ccccc1 | inactive |

same assay, conditions: filed as antagonist

| SMILES | Activity |
| --- | --- |
| CCC(=O)C(C[C@H](C)N(C)C)(c1ccccc1)c1ccccc1 | Active |
| CC[C@@H](O)C(C[C@H](C)N)(c1ccccc1)c1ccccc1 | Active; Compound Activity Comparable To (S)-Methadone |
| CC[C@H](O)C(C[C@H](C)N)(c1ccccc1)c1ccccc1 | Active |
| CC[C@H](O)C(C[C@H](C)NC)(c1ccccc1)c1ccccc1 | Active; Compound Activity Comparable To (S)-Methadone |
| CC[C@H](O)C(C[C@@H](C)NC)(c1ccccc1)c1ccccc1 | Active |
| CC[C@@H](O)C(C[C@@H](C)NC)(c1ccccc1)c1ccccc1 | Active |
| CC[C@H](O)C(C[C@@H](C)N)(c1ccccc1)c1ccccc1 | Active |

biological target: T1, 5-hydroxytryptamine receptor 1A (Homo sapiens) (UniProt P08908); experiment: Displacement of [3H]8-OH-DPAT from recombinant human 5-HT1A receptor expressed in CHO-K1 cells at 0.3 to 3 uM incubated for 1 hr; format: cell-based; details: dose 0.3-3 µM
T1 sequence (whole entry): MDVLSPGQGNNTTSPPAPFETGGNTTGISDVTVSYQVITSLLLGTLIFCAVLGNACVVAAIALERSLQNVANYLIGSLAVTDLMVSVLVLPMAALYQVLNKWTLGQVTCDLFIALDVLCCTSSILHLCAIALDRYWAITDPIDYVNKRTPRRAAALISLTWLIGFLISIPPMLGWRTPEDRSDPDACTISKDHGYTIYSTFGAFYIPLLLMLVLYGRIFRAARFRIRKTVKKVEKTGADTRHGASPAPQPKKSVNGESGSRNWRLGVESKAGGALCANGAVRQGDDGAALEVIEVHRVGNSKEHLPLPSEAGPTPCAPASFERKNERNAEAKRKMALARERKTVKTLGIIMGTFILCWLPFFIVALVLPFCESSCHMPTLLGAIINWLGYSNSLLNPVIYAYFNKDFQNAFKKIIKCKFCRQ

| SMILES | Activity |
| --- | --- |
| CCC(=O)C(C[C@H](C)N(C)C)(c1ccccc1)c1ccccc1 | Active |
| CC[C@@H](O)C(C[C@H](C)N)(c1ccccc1)c1ccccc1 | inactive |
| CC[C@H](O)C(C[C@H](C)N)(c1ccccc1)c1ccccc1 | inactive |
| CCC1=N[C@H](C)CC1(c1ccccc1)c1ccccc1 | inactive |
| CC[C@H](O)C(C[C@H](C)NC)(c1ccccc1)c1ccccc1 | inactive |
| CC[C@H](O)C(C[C@@H](C)NC)(c1ccccc1)c1ccccc1 | inactive |
| CC[C@@H](O)C(C[C@@H](C)NC)(c1ccccc1)c1ccccc1 | inactive |
| CC[C@H](O)C(C[C@@H](C)N)(c1ccccc1)c1ccccc1 | inactive |

biological target: Glutamate NMDA receptor; GRIN1/GRIN2A (Homo sapiens) (UniProt Q05586+Q12879); experiment: Antagonist activity at GluN1/GluN2A receptor (unknown origin) overexpressed in CHO cells assessed as inhibition of Ca2+ flux incubated for 24 hrs in presence of glycine/L-glutamate by FLIPR assay; format: cell-based; details: not given

| SMILES | inhibition |
| --- | --- |
| C[C@H]1CC(c2ccccc2)(c2ccccc2)C(=O)N1C | inactive |
| C[C@@H](CC(C(=O)O)(c1ccccc1)c1ccccc1)N(C)C | inactive |
| C[C@H](CC(C(=O)O)(c1ccccc1)c1ccccc1)N(C)C | inactive |
| C[C@@H]1CC(c2ccccc2)(c2ccccc2)C(=O)N1C | inactive |
| CCC1=[N+](C)[C@@H](C)CC1(c1ccccc1)c1ccccc1 | inactive |
| CCC1=[N+](C)[C@H](C)CC1(c1ccccc1)c1ccccc1 | inactive |
